{"source": "patent US20130065227A1", "about": "“METHODS OF INCREASING MACROPINOCYTOSIS IN CANCER CELLS” (priority 2010, published 2013)", "key": {"DU145 [1]": {"test_system": "DU145", "assay": "Stimulation of macropinocytosis (dextran uptake)", "assay_type": "cell-based", "conditions": "10 μM for 24, 48, or 72 h, flow cytometry", "protocol": "(Panel A) DU145 cells were treated with 10 μM tAS1411 or 10 μM tCRO or no oligonucleotide in complete DMEM medium at 37° C. for the time indicated. After treatment, cell medium was changed for fresh complete medium containing 0.2 mg/ml dextran-10K labeled with Alexa Fluor 488, and cells were incubated for 30 min at 37° C. After incubation, cells were harvested and analyzed by flow cytometry to determine dextran uptake. (Panel B) The same experiment was performed using Hs27 cells. (Panel C) DU145 cells were treated with 10 μM tAS1411 or 10 μM tCRO or no oligonucleotide in complete DMEM medium at 37° C. for 48 h. After treatment, cell medium was changed for fresh complete medium containing 0.2 mg/ml dextran-10K tagged with Alexa Fluor 488, and cells were incubated for 30 min at 37° C. Then, cells were washed with cold PBS, added PBS containing 5 μg/ml PI and incubated on ice for 5 min. After washing with cold PBS, cells were fixed and the distribution of macropinocytic marker was visualized by confocal microscopy. The nucleus was stained with DAPI (blue). Scale bars, 10 μm. All experiments have been repeated at least three times. Data are mean of three independent samples; bars, SE; *(p<0.05).\nFIG. 6 are graphs showing that nucleolin regulates AS1411-induced stimulation of macropinocytosis. DU145 cells were untreated (no transfection) or transfected, without siRNA (mock), or with 30 nM of one of three different nucleolin siRNAs (NCL1, NCL2, NCL3) or a control siRNA (scramble). 48 h after transfection, cells were incubated with 10 μM tAS1411, 10 μM tCRO, or no oligonucleotide in complete DMEM medium at 37° C. for 24 h. (Panel A) After treatment, cell medium was changed for fresh complete medium containing 0.2 mg/ml dextran-10K labeled with Alexa Fluor 488 (green) and incubated for 30 min at 37° C. (Panel B) After treatment, some cells were washed, fresh complete medium containing 10 μM FL-AS1411 added and incubated for 2 h at 37° C. After incubation, cells were harvested and analyzed by flow cytometry. Mean fluorescence was normalized to “not transfected” control (Panel A) or to no pre-treatment control (Panel B). All experiments have been repeated at least three times. Data are the mean of three independent samples; bars, SE; *(p<0.05).\nFIG. 11 is a graph showing a comparison between AS1411 and tAS1411 in the ability to stimulate macropinocytosis. DU145 cells were plated 18 hr before treatment with different concentrations (0, 5, 10, or 15 μM) of AS1411, tAS1411 or tCRO in complete DMEM medium at 37° C. for 48 h. After treatment, cell medium was changed for fresh complete medium containing 0.2 mg/ml dextran-10K labeled with Alexa Fluor 488, and cells were incubated for 30 min at 37° C. After incubation, cells were incubated on ice with […] PI in PBS, harvested, fixed and immediately analyzed by flow cytometry.\n(§1) To analyze uptake of the oligodeoxynucleotides or dextran-10K (macropinocytic marker) by flow cytometry, 2×10^5 cells in fresh supplemented culture medium (2.5 ml) were plated into 6-well plates for 18 h. After complete adhesion, the cells were incubated with 5′-FAM tagged oligodeoxynucleotides or Alexa Fluor 488 tagged dextran-10K and incubated as indicated in the Description of the Drawings. Cells were washed once with ice-cold PBS, incubated with 1 μg/ml 7-amino-actinomycin D (7-AAD) for 5 min on ice or 1 μg/ml propidium iodide (PI), and washed twice with ice-cold PBS. Cells were then treated with 0.01% trypsin/0.5 mM EDTA (300 μl) for 3 min prior addition 3 ml supplemented culture medium. The cells were then centrifuged and resuspended in 0.5 ml of 1% paraformaldehyde for analysis by flow cytometry using a FACScalibur cytometer (BD Biosciences, Mountain View, Calif.).\nAS1411 causes a change in cancer cell morphology that is characterized by vacuolization, irregular nuclei, and swollen cells (Xu et al., 2001, J. Biol. Chem., 276:43221-30). […]"}, "DU145 cells [2]": {"test_system": "DU145 cells", "assay_type": "cell-based", "protocol": "DU145 cells were incubated for 4 days in the presence of 10 μM AS1411 with 3-MA at the concentration indicated, and cell number was assessed by MTT assay.\nIt also appears unlikely that AS1411-induced cell death is due to autophagy. […] Further evidence that supports the idea that AS1411 can induce methuosis comes from the similarity between the appearance of cells treated with AS1411 and published images of glioblastoma cells undergoing Ras-induced methuosis."}, "Hs27 cells": {"test_system": "Hs27 cells", "assay": "Uptake of fluorophore-labeled oligonucleotides by flow cytometry", "assay_type": "cell-based, human", "conditions": "for effect of pre-treatment on FL-AS1411 uptake: then 10 μM FL-AS1411 2 h", "protocol": "(§2) FIG. 1 are graphs showing that AS1411 cell internalization is an active process. Cells were plated 18 h before uptake analysis. After incubation as described, cells were washed with ice-cold PBS, incubated with 1 μg/ml 7-AAD, harvested and resuspended in 1% paraformaldehyde containing 2 μg/ml actinomycin D, then analyzed by flow cytometry. (Panel A) DU145 cells were incubated at 37° C. with fresh complete DMEM medium containing 10 μM FL-AS1411 (black line) or 10 μM FL-CRO (gray line) for the time indicated. (Panel B) DU145 cells were incubated for 2 h at 37° C. in complete or serum-free DMEM medium containing 10 μM FL-AS1411, or 10 μM FL-CRO, or no oligonucleotide. (Panel C) Various cell lines were incubated with 10 μM FL-AS1411 (black outline histogram), 10 μM FL-CRO (gray outline histogram) or without DNA (solid gray histogram) at 37° C. or 4° C. for 2 h. All experiments were repeated at least three times. Data are mean of three independent samples; bars, SE; *(p<0.05).\n(§3) FIG. 2 are graphs showing that AS1411 is internalized by different endocytic mechanisms in DU145 cancer cells and in non-malignant Hs27 cells. DU145 or Hs27 cells were plated 18 h before uptake analysis. Cells were pre-treated as described with inhibitor (gray histogram) or the corresponding vehicle control (black histogram) before addition of 10 μM FL-AS1411 and incubation at 37° C. for 2 h. After incubation, cells were harvested and analyzed by flow cytometry. Pre-treatment conditions were at 37° C. with: (Panel A) 5 μM Cytochalasin D for 30 min; (Panel B) 80 μM Dynasore for 30 min; or (Panel C) 3 mM amiloride for 1 h. All experiments were repeated at least three times and representative data are shown. Solid gray histograms represent background autofluorescence of unstained cells.\n(§4) FIG. 9 are graphs showing the effects of inhibitors on various endocytic pathways. DU145 or Hs27 cells were plated 18 hr before uptake analysis. (Panel A) DU145 cells were pre-treated with dynamin inhibitor, […] Dynasore (black histogram) or DMSO (gray histogram) for 30 min at 37° C. After pre-treatment, cells were treated with […] transferrin conjugated with Alexa Fluor 488 for 30 min at 37° C. (Panel B) DU145 and Hs27 cells were pre-treated with 3 mM amiloride (black histogram) or vehicle (serum-free medium, gray histogram) for 1 h at 37° C. After pre-treatment, FL-CRO was added at a concentration of 10 μM and incubated at 37° C. for 2 h. After incubation, cells were harvested and analyzed by FACS. Gray solid histogram represents unstained cells.\nTo analyze uptake of the oligodeoxynucleotides or dextran-10K (macropinocytic marker) by flow cytometry, 2×10^5 cells in fresh supplemented culture medium (2.5 ml) were plated into 6-well plates for 18 h. […]"}, "DU145 cells [3]": {"test_system": "DU145 cells", "assay": "Uptake of fluorophore-labeled oligonucleotides by flow cytometry", "assay_type": "cell-based", "conditions": "for effect of pre-treatment on FL-AS1411 uptake: then 10 μM FL-AS1411 2 h", "protocol": "as §2, §3\nDU145 cells were transfected for 48 h without siRNA (mock, M), or with 30 nM of one of three different nucleolin siRNAs (NCL1, NCL2, NCL3) or a control siRNA (scramble, S), or contransfected with 10 nM of each nucleolin siRNAs (mix). (Panel A) Cells were lysed and total cell lyses were analyzed by Western blotting using the antibodies shown. (Panel B) Cell-surface proteins from intact transfected DU145 cells were labeled covalently with membrane-impermeable biotinylating agent. Cells were lysed, then biotinylated plasma membrane proteins were captured with streptavidin-agarose beads and analyzed by blotting with anti-nucleolin antibody (upper panel). After stripping, the membrane was reprobed with antibodies for a plasma membrane marker (anti-pan Cadherin) and a nuclear marker (anti-histone 3) to confirm the fractionation. Total lysate (Lys) was used as control. (Panel C) The medium of transfected cells was replaced by fresh complete DMEM medium containing no oligonucleotide (gray dashed histogram) or 10 μM FL-CRO (gray solid line histogram) or 10 μM FL-AS1411 (black solid line histogram) and incubated at 37° C. for 2 h. After incubation, cells were harvested and analyzed by flow cytometry.\nDU145 cells were plated 18 hr before uptake analysis. Cell medium was changed with fresh complete DMEM medium containing different concentrations of FL-AS1411 (black line) or FL-CRO (gray line), and incubated at 37° C. for 2 hrs. After incubation, cells were harvested and analyzed by flow cytometry.\nas §4, with “Gray solid histogram represents unstained cells.” left out"}, "MCF7": {"test_system": "MCF7", "assay": "Uptake of AS1411 by macropinocytosis (MP)", "assay_type": "cell-based", "conditions": "amiloride treatment, MCF7 cells", "source_text": "(§5) There was little effect of amiloride treatment on uptake of FL-CRO in either DU145 cancer cells or non-malignant Hs27 cells (FIG. 9B). […] These studies also confirmed the previous results that there was higher overall uptake of FL-AS1411 in Hs27 cells than in DU145 cells.\n(§6) It has recently been discovered that AS1411 can stimulate macropinocytosis (MP) in cancer cells and this finding was verified by several different methods and in multiple cancer cell lines (Table 1)."}, "MDA-MB-231": {"test_system": "MDA-MB-231", "assay": "Uptake of AS1411 by macropinocytosis (MP)", "assay_type": "cell-based", "conditions": "amiloride treatment, MDA-MB-231 cells", "source_text": "as §5, §6"}, "DU145 [4]": {"test_system": "DU145", "assay": "Uptake of AS1411 by macropinocytosis (MP)", "assay_type": "cell-based", "conditions": "3 mM amiloride for 1 h, then 10 μM FL-AS1411 2 h", "protocol": "as §3\nas §1, with “Cells were then treated with 0.01% trypsin/0.5 mM EDTA (300 μl) for 3 min prior addition 3 ml supplemented culture medium. The cells were then centrifuged and resuspended in 0.5 ml of 1% paraformaldehyde for analysis by flow cytometry using a FACScalibur cytometer (BD Biosciences, Mountain View, Calif.).” left out"}, "DU145 cells [5]": {"test_system": "DU145 cells", "assay": "Transferrin uptake (clathrin-dependent endocytosis) by flow cytometry", "assay_type": "cell-based", "parameters": "dose or concentration left out as unconfirmed", "conditions": "for 30 min, transferrin-Alexa Fluor 488 for 30 min", "protocol": "as §4\nTo confirm that uptake of AS1411 occurs by endocytosis, the involvement of the actin cytoskeleton, which has been implicated in regulating endocytic pathways, was evaluated. To this end, DU145 and Hs27 cells were pre-treated with an actin polymerization inhibitor. 5 μM cytochalasin D, and assessed for FL-AS1411 uptake by flow cytometry. […]"}, "[6]": {"conditions": "3 mM amiloride for 1 h, then 10 μM FL-CRO 2 h"}}}
{"compound": "5′-d(TTTCCTCCTCCTCCTTCTCCTCCTCCTCC) (DNA TTTCCTCCTCCTCCTTCTCCTCCTCCTCC; unmodified DNA) [tCRO, reference compound]", "values": [{"measurement": "uptake of the macropinocytic marker, dextran, after treatment", "setting": "DU145 [1]", "value": "No changes in dextran uptake"}]}
{"compound": "Cn1cnc(N)c2ncnc1-2", "note": "[3-methyladenine]", "values": [{"measurement": "toxicity of the inhibitor alone", "setting": "DU145 cells [2]", "value": "some toxicity by itself"}, {"measurement": "effect on AS1411 activity", "setting": "DU145 cells [2]; 4 days, 10 μM AS1411", "value": "did not inhibit AS1411 activity"}]}
{"compound": "C=C1[C@@H](C)[C@H]2[C@H](Cc3ccccc3)NC(=O)[C@]23[C@H](OC(C)=O)/C=C/[C@@](C)(O)C(=O)[C@@H](C)C/C=C/[C@H]3[C@@H]1O", "note": "[Cytocholasin D, Cytochalasin D, reference compound]", "values": [{"measurement": "effect of pre-treatment on FL-AS1411 uptake", "setting": "Hs27 cells; 5 μM cytochalasin D for 30 min", "value": "decrease in FL-AS1411 uptake"}, {"measurement": "effect of pre-treatment on FL-AS1411 uptake", "setting": "DU145 cells [3]; 5 μM cytochalasin D for 30 min", "value": "decrease in FL-AS1411 uptake"}]}
{"compound": "N=C(N)NC(=O)c1nc(Cl)c(N)nc1N", "note": "[amiloride, reference compound]", "values": [{"measurement": "effect of treatment on uptake of FL-CRO", "setting": "Hs27 cells; [6]", "value": "little effect"}, {"measurement": "effect of treatment on AS1411 uptake", "setting": "MCF7", "value": "affected the AS1411 uptake"}, {"measurement": "effect of treatment on AS1411 uptake", "setting": "MDA-MB-231", "value": "affected the AS1411 uptake"}, {"measurement": "effect of pre-treatment on FL-AS1411 uptake", "setting": "DU145 [4]", "value": "reduction in FL-AS1411 uptake"}, {"measurement": "effect of treatment on uptake of FL-CRO", "setting": "DU145 cells [3]; [6]", "value": "little effect"}]}
{"compound": "O=C(N/N=C/c1ccc(O)c(O)c1)c1cc2ccccc2cc1O", "note": "[dynasore]", "values": [{"measurement": "effect of pre-treatment on FL-AS1411 uptake", "setting": "Hs27 cells; 80 μM dynasore", "value": "decreased the uptake of AS1411"}, {"measurement": "effect of pre-treatment on uptake of transferrin", "setting": "DU145 cells [5]", "value": "inhibited"}, {"measurement": "effect of pre-treatment on FL-AS1411 uptake", "setting": "DU145 cells [3]; 80 μM dynasore", "value": "slightly increased the uptake of FL-AS1411"}]}
